Test results taken from ChEMBL document CHEMBL1268977, “Efficient synthesis, spectral analysis and antimicrobial studies of nitrogen and sulfur containing spiro heterocycles from 2,4-diaryl-3-azabicyclo[3.3.1]nonan-9-ones” (2010).
Values after ≈ are worked out from the molar mass of the structure shown. Active and inactive are the calls of the source. The rule behind the calls is not given here.

Key:
[1] = system: Candida albicans; assay: Antifungal activity against Candida albicans ATCC 3430 after 72 to 96 hrs by serial dilution method; format: functional
[2] = system: Salmonella typhi; assay: Antibacterial activity against Salmonella typhi ATCC 25021 after 24 hrs by serial dilution method; format: functional, Salmonella enterica subsp. enterica serovar Typhi; conditions: Salmonella enterica, ATCC 25021, 24 h
[3] = system: Cryptococcus neoformans; assay: Antifungal activity against Cryptococcus neoformans ATCC 3235 after 72 to 96 hrs by serial dilution method; format: functional
[4] = system: Rhizopus; assay: Antifungal activity against Rhizopus species ATCC 2842 after 72 to 96 hrs by serial dilution method; format: functional
[5] = system: Aspergillus flavus; assay: Antifungal activity against Aspergillus flavus ATCC 525 after 72 to 96 hrs by serial dilution method; format: functional
[6] = system: Klebsiella pneumoniae; assay: Antibacterial activity against Klebsiella pneumoniae ATCC 16425 after 24 hrs by serial dilution method; format: functional; conditions: ATCC 16425, 24 h
[7] = system: Staphylococcus aureus; assay: Antibacterial activity against Staphylococcus aureus ATCC 25930 after 24 hrs by serial dilution method; format: functional; conditions: ATCC 25930, 24 h
[8] = system: Aspergillus niger; assay: Antifungal activity against Aspergillus niger ATCC 635 after 72 to 96 hrs by serial dilution method; format: functional
[9] = system: Escherichia coli; assay: Antibacterial activity against Escherichia coli ATCC 26032 after 24 hrs by serial dilution method; format: functional; conditions: ATCC 26032, 24 h
[10] = system: Bacillus subtilis; assay: Antibacterial activity against Bacillus subtilis ATCC 530 after 24 hrs by serial dilution method; format: functional; conditions: ATCC 530, 24 h
[11] = system: Escherichia coli; assay: Antibacterial activity against Escherichia coli ATCC 26032 at 200 ug/ml after 24 hrs by serial dilution method; format: functional, organism-based
[12] = system: Aspergillus niger; assay: Antifungal activity against Aspergillus niger ATCC 635 at 200 ug/ml after 72 to 96 hrs by serial dilution method; format: functional, organism-based
[13] = system: Bacillus subtilis; assay: Antibacterial activity against Bacillus subtilis ATCC 530 at 200 ug/ml after 24 hrs by serial dilution method; format: functional, organism-based
[14] = system: Klebsiella pneumoniae; assay: Antibacterial activity against Klebsiella pneumoniae ATCC 16425 at 200 ug/ml after 24 hrs by serial dilution method; format: functional, organism-based

SMILES | MIC [1] [µg/mL] | MIC [2] [µg/mL] | MIC [3] [µg/mL] | MIC [4] [µg/mL] | MIC [5] [µg/mL] | MIC [6] [µg/mL] | MIC [7] [µg/mL] | MIC [8] [µg/mL] | MIC [9] [µg/mL] | MIC [10] [µg/mL] | inhibition [11] | inhibition [12] | inhibition [13] | inhibition [14]
CC(=O)NC1=NN(C(C)=O)C2(S1)C1CCCC2C(c2ccccc2)N(C(C)=O)C1c1ccccc1 (stereo not given) | 100 (≈ 204 µM) | 25 (≈ 51 µM) | 50 (≈ 102 µM) | 50 (≈ 102 µM) | 100 (≈ 204 µM) | 100 (≈ 204 µM) | 12.5 (≈ 25.5 µM) | 25 (≈ 51 µM) | 50 (≈ 102 µM) | 100 (≈ 204 µM) |  |  |  | 
COc1cccc(C2NC(c3cccc(OC)c3)C3CCCC2C32SC(NC(C)=O)=NN2C(C)=O)c1 (stereo not given) | 25 (≈ 49.2 µM) |  | 50 (≈ 98.3 µM) | 50 (≈ 98.3 µM) | 200 (≈ 393 µM) | 100 (≈ 197 µM) | 100 (≈ 197 µM) | 100 (≈ 197 µM) | 200 (≈ 393 µM) | 50 (≈ 98.3 µM) | inactive |  |  | 
CCC(=O)NC1=NN(C(=O)CC)C2(S1)C1CCCC2C(c2cccc(F)c2)NC1c1cccc(F)c1 (stereo not given) | 25 (≈ 48.8 µM) | 6.25 (≈ 12.2 µM) | 25 (≈ 48.8 µM) | 25 (≈ 48.8 µM) | 50 (≈ 97.5 µM) | 50 (≈ 97.5 µM) | 100 (≈ 195 µM) | 12.5 (≈ 24.4 µM) | 6.25 (≈ 12.2 µM) | 6.25 (≈ 12.2 µM) |  |  |  | 
CC(=O)NC1=NN(C(C)=O)C2(S1)C1CCCC2C(c2ccc(F)cc2)NC1c1ccc(F)cc1 (stereo not given) | 6.25 (≈ 12.9 µM) | 6.25 (≈ 12.9 µM) | 12.5 (≈ 25.8 µM) | 50 (≈ 103 µM) | 6.25 (≈ 12.9 µM) | 12.5 (≈ 25.8 µM) | 50 (≈ 103 µM) | 6.25 (≈ 12.9 µM) | 12.5 (≈ 25.8 µM) | 6.25 (≈ 12.9 µM) |  |  |  | 
CCC(=O)NC1=NN(C(=O)CC)C2(S1)C1CCCC2C(c2ccc(Cl)cc2)NC1c1ccc(Cl)cc1 (stereo not given) | 12.5 (≈ 22.9 µM) | 12.5 (≈ 22.9 µM) | 25 (≈ 45.8 µM) | 12.5 (≈ 22.9 µM) | 50 (≈ 91.7 µM) | 100 (≈ 183 µM) | 200 (≈ 367 µM) | 12.5 (≈ 22.9 µM) | 25 (≈ 45.8 µM) | 12.5 (≈ 22.9 µM) |  |  |  | 
CC(=O)NC1=NN(C(C)=O)C2(S1)C1CCCC2C(c2ccccc2Cl)NC1c1ccccc1Cl (stereo not given) | 12.5 (≈ 24.2 µM) | 12.5 (≈ 24.2 µM) | 50 (≈ 96.6 µM) | 12.5 (≈ 24.2 µM) | 12.5 (≈ 24.2 µM) | 25 (≈ 48.3 µM) | 12.5 (≈ 24.2 µM) |  | 12.5 (≈ 24.2 µM) | 12.5 (≈ 24.2 µM) |  | inactive |  | 
CCC(=O)NC1=NN(C(=O)CC)C2(S1)C1CCCC2C(c2ccc(OC)cc2)N(C(=O)CC)C1c1ccc(OC)cc1 (stereo not given) | 25 (≈ 42.2 µM) | 25 (≈ 42.2 µM) | 50 (≈ 84.4 µM) | 100 (≈ 169 µM) | 100 (≈ 169 µM) | 25 (≈ 42.2 µM) | 25 (≈ 42.2 µM) | 25 (≈ 42.2 µM) | 50 (≈ 84.4 µM) |  |  |  | inactive | 
CCC(=O)N(C1=NN(C(=O)CC)C2(S1)C1CCCC2C(c2ccccc2Cl)NC1c1ccccc1Cl)c1ccccc1 (stereo not given) | 50 (≈ 80.4 µM) | 25 (≈ 40.2 µM) | 200 (≈ 322 µM) | 100 (≈ 161 µM) | 50 (≈ 80.4 µM) | 25 (≈ 40.2 µM) | 6.25 (≈ 10.1 µM) | 50 (≈ 80.4 µM) | 50 (≈ 80.4 µM) | 50 (≈ 80.4 µM) |  |  |  | 
CC(=O)N(C1=NN(C(C)=O)C2(S1)C1CCCC2C(c2ccccc2Cl)NC1c1ccccc1Cl)c1ccccc1 (stereo not given) | 6.25 (≈ 10.5 µM) | 100 (≈ 168 µM) | 50 (≈ 84.2 µM) | 25 (≈ 42.1 µM) | 100 (≈ 168 µM) | 100 (≈ 168 µM) | 25 (≈ 42.1 µM) | 12.5 (≈ 21.1 µM) | 50 (≈ 84.2 µM) | 12.5 (≈ 21.1 µM) |  |  |  | 
CCC(=O)NC1=NN(C(=O)CC)C2(S1)C1CCCC2C(c2ccc(C)cc2)NC1c1ccc(C)cc1 (stereo not given) | 25 (≈ 49.5 µM) | 50 (≈ 99.1 µM) | 25 (≈ 49.5 µM) | 50 (≈ 99.1 µM) | 200 (≈ 396 µM) | 25 (≈ 49.5 µM) | 50 (≈ 99.1 µM) | 100 (≈ 198 µM) | 25 (≈ 49.5 µM) | 100 (≈ 198 µM) |  |  |  | 
CC(=O)NC1=NN(C(C)=O)C2(S1)C1CCCC2C(c2cccc(F)c2)NC1c1cccc(F)c1 (stereo not given) | 25 (≈ 51.6 µM) | 6.25 (≈ 12.9 µM) | 25 (≈ 51.6 µM) | 12.5 (≈ 25.8 µM) | 6.25 (≈ 12.9 µM) | 6.25 (≈ 12.9 µM) | 50 (≈ 103 µM) | 25 (≈ 51.6 µM) | 6.25 (≈ 12.9 µM) | 25 (≈ 51.6 µM) |  |  |  | 
CCC(=O)NC1=NN(C(=O)CC)C2(S1)C1CCCC2C(c2ccc(F)cc2)NC1c1ccc(F)cc1 (stereo not given) | 6.25 (≈ 12.2 µM) | 6.25 (≈ 12.2 µM) | 25 (≈ 48.8 µM) | 6.25 (≈ 12.2 µM) | 6.25 (≈ 12.2 µM) | 25 (≈ 48.8 µM) | 25 (≈ 48.8 µM) | 12.5 (≈ 24.4 µM) | 12.5 (≈ 24.4 µM) | 6.25 (≈ 12.2 µM) |  |  |  | 
CC(=O)NC1=NN(C(C)=O)C2(S1)C1CCCC2C(c2ccc(C)cc2)NC1c1ccc(C)cc1 (stereo not given) | 25 (≈ 52.4 µM) | 100 (≈ 210 µM) | 50 (≈ 105 µM) | 25 (≈ 52.4 µM) | 12.5 (≈ 26.2 µM) | 12.5 (≈ 26.2 µM) | 25 (≈ 52.4 µM) | 50 (≈ 105 µM) | 100 (≈ 210 µM) | 12.5 (≈ 26.2 µM) |  |  |  | 
CC(=O)N(C1=NN(C(C)=O)C2(S1)C1CCCC2C(c2ccc(Cl)cc2)N(C(C)=O)C1c1ccc(Cl)cc1)c1ccccc1 (stereo not given) | 100 (≈ 157 µM) | 12.5 (≈ 19.7 µM) | 50 (≈ 78.7 µM) | 12.5 (≈ 19.7 µM) | 200 (≈ 315 µM) | 50 (≈ 78.7 µM) | 12.5 (≈ 19.7 µM) |  | 25 (≈ 39.3 µM) | 25 (≈ 39.3 µM) |  | inactive |  | 
C[C@@H]1[C@H](O)[C@@H](C)/C=C/C=C/C=C/C=C/C=C/C=C/C=C/[C@H](O[C@@H]2O[C@H](C)[C@@H](O)[C@H](N)[C@@H]2O)C[C@@H]2O[C@](O)(C[C@@H](O)C[C@@H](O)[C@H](O)CC[C@@H](O)C[C@@H](O)CC(=O)O[C@H]1C)C[C@H](O)[C@H]2C(=O)O [AMPHOTERICIN B] | 25 (≈ 27.1 µM) |  | 25 (≈ 27.1 µM) | 25 (≈ 27.1 µM) | 50 (≈ 54.1 µM) |  |  | 50 (≈ 54.1 µM) |  |  |  |  |  | 
COc1ccc(C2C3CCCC(C(c4ccc(OC)cc4)N2C(C)=O)C32SC(NC(C)=O)=NN2C(C)=O)cc1 (stereo not given) | 25 (≈ 45.4 µM) | 50 (≈ 90.8 µM) | 25 (≈ 45.4 µM) | 100 (≈ 182 µM) | 12.5 (≈ 22.7 µM) | 25 (≈ 45.4 µM) | 25 (≈ 45.4 µM) |  | 50 (≈ 90.8 µM) | 50 (≈ 90.8 µM) |  | inactive |  | 
CCC(=O)NC1=NN(C(=O)CC)C2(S1)C1CCCC2C(c2ccccc2)N(C(=O)CC)C1c1ccccc1 (stereo not given) | 50 (≈ 93.9 µM) | 25 (≈ 46.9 µM) | 6.25 (≈ 11.7 µM) | 12.5 (≈ 23.5 µM) | 12.5 (≈ 23.5 µM) | 50 (≈ 93.9 µM) | 12.5 (≈ 23.5 µM) | 50 (≈ 93.9 µM) | 50 (≈ 93.9 µM) | 50 (≈ 93.9 µM) |  |  |  | 
CCC(=O)NC1=NN(C(=O)CC)C2(S1)C1CCCC2C(c2cccc(OC)c2)N(C(=O)CC)C1c1cccc(OC)c1 (stereo not given) | 25 (≈ 42.2 µM) | 200 (≈ 337 µM) | 200 (≈ 337 µM) | 50 (≈ 84.4 µM) | 25 (≈ 42.2 µM) |  | 100 (≈ 169 µM) |  | 50 (≈ 84.4 µM) | 50 (≈ 84.4 µM) |  | inactive |  | inactive
CC(=O)NC1=NN(C(C)=O)C2(S1)C1CCCC2C(c2ccc(Cl)cc2)NC1c1ccc(Cl)cc1 (stereo not given) | 25 (≈ 48.3 µM) | 25 (≈ 48.3 µM) | 6.25 (≈ 12.1 µM) | 200 (≈ 386 µM) | 50 (≈ 96.6 µM) | 50 (≈ 96.6 µM) | 25 (≈ 48.3 µM) | 25 (≈ 48.3 µM) | 12.5 (≈ 24.2 µM) |  |  |  | inactive | 
CCC(=O)NC1=NN(C(=O)CC)C2(S1)C1CCCC2C(c2ccccc2Cl)NC1c1ccccc1Cl (stereo not given) | 12.5 (≈ 22.9 µM) | 25 (≈ 45.8 µM) | 50 (≈ 91.7 µM) | 100 (≈ 183 µM) | 50 (≈ 91.7 µM) | 25 (≈ 45.8 µM) | 50 (≈ 91.7 µM) | 12.5 (≈ 22.9 µM) | 50 (≈ 91.7 µM) | 12.5 (≈ 22.9 µM) |  |  |  | 
CN[C@@H]1[C@H](O[C@H]2[C@H](O[C@H]3[C@H](O)[C@@H](O)[C@H](N=C(N)N)[C@@H](O)[C@@H]3N=C(N)N)O[C@@H](C)[C@]2(O)C=O)O[C@@H](CO)[C@H](O)[C@H]1O [STREPTOMYCIN] |  | 50 (≈ 86 µM) |  |  |  | 25 (≈ 43 µM) | 50 (≈ 86 µM) |  | 12.5 (≈ 21.5 µM) | 12.5 (≈ 21.5 µM) |  |  |  | 
